Assay in all cases: NCI-60 cell line screen, 48 h
Experiment [1] concerns 786-0 renal.
Experiment [2] concerns CAKI-1 renal.
The subject of experiment [3] is SNB-75 CNS.
Experiment [4] relates to SF-268 CNS.
Experiment [5] deals with TK-10 renal.
In experiment [6] the test system is OVCAR-3 ovarian.
For experiment [7], the system named is HOP-92 NSCLC.
In experiment [8] the test system is SK-OV-3 ovarian.

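Results reflect a 48-hour exposure of cells in 96-well plates to compound at five concentrations. GI50 marks 50% less growth. At the TGI there is no net growth.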

Turning to `CN(c1cccc(C(=O)O)c1)c1cc(O/N=[N+](\[O-])N(C)C)c([N+](=O)[O-])cc1[N+](=O)[O-]`, the GI50 in experiment [1] is more than 100 µM; in experiment [2], more than 100 µM; in experiment [3], more than 100 µM; in experiment [4], 55.5 µM; in experiment [5], more than 100 µM; in experiment [6] it was more than 100 µM. Also, the TGI in experiment [1], in experiment [2], in experiment [3], in experiment [4], in experiment [5] and in experiment [6] was more than 100 µM throughout.

On to `O=C(O)CCCN1C(=O)/C(=C/C(Cl)=C/c2ccccc2)SC1=S`, for which the GI50 in experiment [1] was 2.33 µM; in experiment [2], 1.66 µM; in experiment [7] it was 3.17 µM; in experiment [8] it was 6.24 µM; in experiment [3], 1.23 µM; in experiment [4], 2.5 µM. Moreover, the values for the GI50 in experiment [5] and in experiment [6] were 3.73 µM and 1.39 µM, respectively. In addition, the TGI in experiment [1] is 6.39 µM; in experiment [2], 3.76 µM; in experiment [7], 9.78 µM; in experiment [8] it was 19 µM; in experiment [3], 4.33 µM; in experiment [4] it was 7.41 µM. The TGI in experiment [5] came out at 9.6 µM; in experiment [6], 3.21 µM.

For the molecule `COc1ccc(-n2cc(-c3cc(OC)c(OC)c(OC)c3)nc2SCc2cccc(C#N)c2)cc1OC`, the GI50 is more than 100 µM in experiment [1]; more than 100 µM in experiment [2]; 27.8 µM in experiment [7]; more than 100 µM in experiment [8]; 0.924 µM in experiment [3]; 95.8 µM in experiment [4]. In addition, the values for the GI50 in experiment [5] and in experiment [6] were more than 100 µM and 65 µM, respectively. Also, the TGI is more than 100 µM in experiment [1]; more than 100 µM in experiment [2]; 78.9 µM in experiment [7]; more than 100 µM in experiment [8]; more than 100 µM in experiment [3]; more than 100 µM in experiment [4]. The TGI in experiment [5] and in experiment [6] was more than 100 µM throughout.

As for `CCN(Cc1ccc(Cl)c(Cl)c1)c1ccc2nc(N)nc(N)c2c1C`, the GI50 in experiment [1] is less than 0.01 µM; in experiment [2], less than 0.0237 µM; in experiment [7] it was 0.24 µM; in experiment [8] it was 0.172 µM; in experiment [3], 0.0945 µM; in experiment [4], 0.0351 µM. For the same molecule, the GI50 in experiment [5] is 0.0753 µM. Further, the TGI in experiment [1] was 1.27 µM; in experiment [2], 0.802 µM; in experiment [7] it was 1.82 µM; in experiment [8] it was 2.22 µM; in experiment [3], 2.01 µM; in experiment [4], 1.69 µM. This molecule displayed a TGI in experiment [5] of 1.91 µM.

As to `O=C(CSSCC(=O)c1ccc(Cl)cc1)c1ccc(Cl)cc1`, the GI50 is 4.41 µM in experiment [1]; 4.99 µM in experiment [2]; 5.37 µM in experiment [7]; 4.34 µM in experiment [8]; 6.62 µM in experiment [3]; 4.3 µM in experiment [4]. In addition, the results for the GI50 in experiment [5] and in experiment [6] were 3.83 µM and 5.39 µM, respectively. Moreover, the TGI in experiment [1] is 14.5 µM; in experiment [2], 28.6 µM; in experiment [7], 19.4 µM; in experiment [8], 22.4 µM; in experiment [3] it was 21.4 µM; in experiment [4], 64.7 µM. For the same molecule, the TGI in experiment [5] amounted to 13.8 µM; in experiment [6] it was 26.1 µM.

In the case of `Nc1[nH]nc(Nc2ccccc2)c1-c1nc2ccccc2s1`, the GI50 in experiment [1] is 1.34 µM; in experiment [7] it was 1.4 µM; in experiment [8], 4.63 µM; in experiment [3] it was 2.39 µM; in experiment [4], 2.36 µM; in experiment [5], 3.02 µM. The GI50 in experiment [6] is 1.7 µM. In addition, the TGI was determined as 3.08 µM in experiment [1]; 3.77 µM in experiment [7]; 15.7 µM in experiment [8]; 10.9 µM in experiment [3]; 8.83 µM in experiment [4]; 9.1 µM in experiment [5]. Also, in experiment [6], the TGI was found to be 3.76 µM.

On to `Nc1c(C(=O)c2cccc(-c3cccnc3)c2)cnn1-c1ccc(F)cc1`, for which the GI50 in experiment [1] was more than 25 µM; in experiment [2], more than 25 µM; in experiment [7], more than 8.11 µM; in experiment [8], more than 25 µM; in experiment [3], more than 12.6 µM; in experiment [4], more than 20.9 µM. The GI50 in experiment [5] and in experiment [6] was more than 25 µM each time. The TGI in experiment [1], in experiment [2], in experiment [7], in experiment [8], in experiment [3] and in experiment [4] was more than 25 µM in each case. Also, the TGI in experiment [5] and in experiment [6] was more than 25 µM in each case.

For `N.N.N.N.N#N.N#N.[Cl-].[Os+6]`, the GI50 in experiment [1], in experiment [2], in experiment [3], in experiment [4], in experiment [5] and in experiment [6] was more than 100 µM throughout. Also, the TGI in experiment [1], in experiment [2], in experiment [3], in experiment [4], in experiment [5] and in experiment [6] was more than 100 µM in each case.

Turning to `CCCC(=O)Oc1ccc(/C(=C(\C)c2ccc(Cl)cc2)c2ccc(OCCN(CC)CC)cc2)cc1`, the GI50 in experiment [1] is 1.74 µM; in experiment [2], 3.99 µM; in experiment [7], 7.76 µM; in experiment [8], 4.85 µM; in experiment [3], 12.8 µM; in experiment [4] it was 3.81 µM. For the same molecule, the results for the GI50 in experiment [5] and in experiment [6] were 5.29 µM and 6.98 µM, respectively. For the same molecule, the TGI in experiment [1] worked out at 3.5 µM; in experiment [2], 16.3 µM; in experiment [7], 23.4 µM; in experiment [8] it was 17.5 µM; in experiment [3], 30.2 µM; in experiment [4] it was 19 µM. In addition, the TGI in experiment [5] worked out at 20.7 µM; in experiment [6] it was 21.4 µM.

As to `CNc1c2ccccc2nc2occ(Cl)c12`, the GI50 in experiment [1] was 34.6 µM; in experiment [2], 12 µM; in experiment [7], 26.9 µM; in experiment [8] it was 36.8 µM; in experiment [4], 26.8 µM; in experiment [5], 17.9 µM. For the same molecule, the GI50 in experiment [6] is 24 µM. The TGI in experiment [1] was more than 100 µM; in experiment [2], 33.2 µM; in experiment [7] it was more than 100 µM; in experiment [8] it was more than 100 µM; in experiment [4], more than 100 µM; in experiment [5], 56.7 µM. The molecule also showed a TGI in experiment [6] of 75.2 µM.

The record behind these values is PubChem BioAssay (NCI).
